Data published in patent US10053455B2, “Diazaspiroalkaneone-substituted oxazole derivatives as spleen tyrosine kinase inhibitors” (AB SCIENCE, priority 2014, dated 2018).

Key:
[1] = biological target: Flt3 (Homo sapiens (Human), UniProt P36888); assay: Cell-based proliferation assay on BaF3 model, Flt3
Procedure: Cell-based proliferation and viability assay CellTiter-Bleue cell-based survival/proliferation assay (Promega G8080) was performed on BaF3 models.
(§1) A total of 1.10^4 cells/well/50 μl were seeded in a 96-wells plate. Treatment was initiated by addition of a 2× drug solution of ½ serial dilutions ranging from 0 to 10 μM. Cells were grown for 48-72 h at 37° C. and then incubated with 10 μl/well of Promega CellTiter-Bleue reagent for 4 h at 37° C. The amount of formazan dye formed was quantified by its absorbance at 450 nm using a scanning multiwell spectrophotometer (POLARstar Omega, BMG labtech, France). A blank well without cells was used as a background control for the spectrophotometer and all assays were performed in duplicates and the experiments were repeated at least twice.

[2] = tested on: murine model of arthritis; assay: K/BxN serum mouse model of rheumatoid arthritis: ankle thickening and arthritis score; assay type: in vivo, C57Bl/6 mice
Procedure: K/B×N serum pools were prepared from arthritic mice at 8 weeks of age. The mice were pre-treated with SYK inhibitors by two per os administration for two days before induction of arthritis. Arthritis was induced in the C57Bl/6 mice (8 weeks of age) by intraperitoneal injection (7.5 μl serum per g weight) at days 0 and 2.
The treatment with SYK inhibitors was continued for 13 days. The control mice were injected with solvent before the induction of arthritis and during the course of the disease. The compounds were dissolved in a solution containing 10% of Tween 80 and 10% 1-2 propandiol. It was prepared before administration.
Ankle thickening measure, being defined as the difference in ankle thickness from the day 0, was measured using a precision calliper. Arthritis/clinical score was defined by sum of scores of each lim (0 no disease; 1 mild swelling of paw or of just of few digits; 2 clear joint inflammation; 3 severe joint inflammation) maximum score=12.
K/B×N was a murine model of spontaneous rheumatoid arthritis that mimics many of the clinical and histological features of human disease with synovitis predominantly in the distal small joints. Arthritis was induced by intraperitoneal injection of arthritis serum of K/B×N mice at days 0 and 2 as described in protocol assays above. Compound 001 was tested at 15 and 50 mg/kg/day b.i.d. and compared with Masitinib at 50 mg/kg/day b.i.d., an AB Science drug candidate for treating rheumatoid arthritis (Arthritis Res Ther., (2009), 11(3):R95). Ankle thickening and arthritis score were used to monitor the in vivo activity of the compounds.

[3] = biological target: BCR-ABL (Homo sapiens, UniProt P00519); assay: Cell-based proliferation assay on BaF3 model, BCR-ABL
Procedure: as §1, with “Cell-based proliferation and viability assay CellTiter-Bleue cell-based survival/proliferation assay (Promega G8080)” for “A total of 1.10^4 cells/well/50 μl were seeded in a 96-wells plate. Treatment”, “performed on BaF3 models. […]” for “initiated by addition of a 2× drug solution of ½ serial dilutions ranging from 0 to 10 μM.”

[4] = biological target: Jak1 (Homo sapiens (Human), UniProt P23458); assay: HTRF kinase assay, Jak1; assay type: biochemical; details: enzymatic determination
Procedure: Most of the kinases tested in this study were cloned, expressed and purified in the facilities of the inventors. They were expressed either as N-terminus hexahistidine-, hexahistidine-asparagine- or GST-tagged enzymes in a baculovirus or in a Colibacille expression system. Remaining enzymes (JAKs) were purchased from Millipore or Proqinase. For each enzyme, steady state kinetic parameters were determined and validated with known inhibitors.
The analysis of the effect of compounds on kinase activity was assessed with the HTRF® KinEASE assay (Cisbio International), an immuno-assay based on the quantification of the level of phosphorylation of a biotinylated peptide substrate using anti-phospho-specific antibody labeled with Europium (Eu^3+) cryptate. This assay comprises two steps: —an enzymatic step, during which the peptide substrate, the kinase, ATP, Mg^2+ and/or Mn^2+ are incubated with varying concentration of drug (from 0 to 10 μM); —a detection step, at the end of the reaction (stopped by addition of EDTA which chelates Mg^2+), the antibody anti-phospho peptide-Eu^3+ (emission 620 nm) and streptavidin XL-665 (emission 665 nm) are added to the reaction mix. […] Results are expressed in delta fluorescence (DF) unit defined as follow DF %=[(ratio−ratio blank)/(ratio blank)]*100, where ratio=(665 nm/620 nm)*10^4. […]

[5] = WST-1 cell survival/proliferation assay on human cardiomyocytes; assay type: cell-based; details: Human Cardiac Myocyte
Procedure: WST-1 cell survival/proliferation assay (Roche Diagnostic ref No 1644807) was performed on both primary human adult cardiomyocytes and rat neonatal cardiac myocytes.
Human cardiomyocytes were isolated from normal human ventricle tissue of the adult heart and were able to proliferate for a number of passage. Neonatal ventricular Clonetics® Rat Cardiac Myocytes (P1-3) retained their contractile property and were electrophysiologically active in culture. 1.10^4 primary rat cells or 2-2.5 10^4 adult human cells were plated per well of a 96 wells plates. The cells were allowed to adhere to the plates for 5 days before drug treatment. Treatment was initiated by addition of a 2× drug solution of ½ serial dilutions ranging from 0 to 10 μM. Cells were grown for 48 h at 37° C. and then incubated with 10 μl/well of WST-1 reagent for 4 h at 37° C. The amount of formazan dye formed was quantified by its absorbance at 450 nm using a scanning multiwell spectrophotometer (MultiSkan MS, Thermo-LabSystems, France). A blank well without cells was used as a background control for the spectrophotometer and all assays were performed in triplicate.

Flt3, sequence (P36888 27-993, species assumed): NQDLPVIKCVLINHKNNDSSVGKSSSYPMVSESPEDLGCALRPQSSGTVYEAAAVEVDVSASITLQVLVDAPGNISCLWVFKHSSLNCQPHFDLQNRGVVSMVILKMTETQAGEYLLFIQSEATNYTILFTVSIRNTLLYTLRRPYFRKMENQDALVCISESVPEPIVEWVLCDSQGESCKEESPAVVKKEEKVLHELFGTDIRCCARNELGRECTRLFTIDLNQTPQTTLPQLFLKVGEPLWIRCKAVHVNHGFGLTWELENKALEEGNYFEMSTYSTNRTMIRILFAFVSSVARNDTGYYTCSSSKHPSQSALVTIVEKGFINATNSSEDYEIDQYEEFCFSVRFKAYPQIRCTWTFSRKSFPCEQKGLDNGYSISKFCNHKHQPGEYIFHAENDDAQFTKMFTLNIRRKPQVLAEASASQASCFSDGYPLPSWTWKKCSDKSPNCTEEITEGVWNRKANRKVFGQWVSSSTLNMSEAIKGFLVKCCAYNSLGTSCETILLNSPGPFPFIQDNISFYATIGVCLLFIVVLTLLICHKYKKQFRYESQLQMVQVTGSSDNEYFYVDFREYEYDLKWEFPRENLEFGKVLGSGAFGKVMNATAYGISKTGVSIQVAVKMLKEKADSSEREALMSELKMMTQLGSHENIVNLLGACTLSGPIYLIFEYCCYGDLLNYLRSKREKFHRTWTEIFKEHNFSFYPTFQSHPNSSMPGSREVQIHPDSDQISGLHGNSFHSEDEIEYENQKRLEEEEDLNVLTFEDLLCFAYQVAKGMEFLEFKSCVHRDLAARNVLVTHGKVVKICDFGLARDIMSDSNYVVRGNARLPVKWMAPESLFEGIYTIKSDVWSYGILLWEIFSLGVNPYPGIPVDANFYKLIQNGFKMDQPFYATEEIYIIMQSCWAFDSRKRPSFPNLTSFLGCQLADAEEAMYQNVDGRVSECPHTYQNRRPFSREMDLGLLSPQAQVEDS
BCR-ABL, sequence (P00519 whole entry, looked up, stated change not applied): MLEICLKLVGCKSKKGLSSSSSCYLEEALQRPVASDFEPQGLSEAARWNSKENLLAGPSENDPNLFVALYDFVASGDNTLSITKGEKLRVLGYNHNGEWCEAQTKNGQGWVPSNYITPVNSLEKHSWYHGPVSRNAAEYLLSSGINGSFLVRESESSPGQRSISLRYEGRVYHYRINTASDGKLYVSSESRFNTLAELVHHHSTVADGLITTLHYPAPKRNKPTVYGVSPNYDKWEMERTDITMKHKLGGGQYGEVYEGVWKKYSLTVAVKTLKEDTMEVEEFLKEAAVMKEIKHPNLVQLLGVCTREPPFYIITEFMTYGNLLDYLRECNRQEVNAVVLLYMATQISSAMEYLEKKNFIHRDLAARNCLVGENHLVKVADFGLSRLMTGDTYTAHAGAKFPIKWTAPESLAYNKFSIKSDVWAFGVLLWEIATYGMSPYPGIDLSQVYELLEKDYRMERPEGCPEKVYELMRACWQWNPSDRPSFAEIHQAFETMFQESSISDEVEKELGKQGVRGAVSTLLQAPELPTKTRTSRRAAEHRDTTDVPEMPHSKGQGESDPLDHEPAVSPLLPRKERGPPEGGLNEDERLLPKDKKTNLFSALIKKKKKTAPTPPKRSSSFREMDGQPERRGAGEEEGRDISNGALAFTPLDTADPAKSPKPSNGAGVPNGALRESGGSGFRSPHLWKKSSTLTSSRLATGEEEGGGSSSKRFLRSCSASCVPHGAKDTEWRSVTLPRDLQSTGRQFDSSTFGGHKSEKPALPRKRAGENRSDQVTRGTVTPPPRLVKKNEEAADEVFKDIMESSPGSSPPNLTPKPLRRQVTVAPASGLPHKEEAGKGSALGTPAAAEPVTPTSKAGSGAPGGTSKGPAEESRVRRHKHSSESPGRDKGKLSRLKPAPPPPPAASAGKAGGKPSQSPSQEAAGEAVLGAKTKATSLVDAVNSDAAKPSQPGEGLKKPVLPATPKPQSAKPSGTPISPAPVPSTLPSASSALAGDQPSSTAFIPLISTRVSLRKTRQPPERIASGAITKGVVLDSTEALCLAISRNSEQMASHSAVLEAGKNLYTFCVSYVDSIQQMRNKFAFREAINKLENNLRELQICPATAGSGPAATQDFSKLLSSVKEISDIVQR
Jak1, sequence (P23458 whole entry): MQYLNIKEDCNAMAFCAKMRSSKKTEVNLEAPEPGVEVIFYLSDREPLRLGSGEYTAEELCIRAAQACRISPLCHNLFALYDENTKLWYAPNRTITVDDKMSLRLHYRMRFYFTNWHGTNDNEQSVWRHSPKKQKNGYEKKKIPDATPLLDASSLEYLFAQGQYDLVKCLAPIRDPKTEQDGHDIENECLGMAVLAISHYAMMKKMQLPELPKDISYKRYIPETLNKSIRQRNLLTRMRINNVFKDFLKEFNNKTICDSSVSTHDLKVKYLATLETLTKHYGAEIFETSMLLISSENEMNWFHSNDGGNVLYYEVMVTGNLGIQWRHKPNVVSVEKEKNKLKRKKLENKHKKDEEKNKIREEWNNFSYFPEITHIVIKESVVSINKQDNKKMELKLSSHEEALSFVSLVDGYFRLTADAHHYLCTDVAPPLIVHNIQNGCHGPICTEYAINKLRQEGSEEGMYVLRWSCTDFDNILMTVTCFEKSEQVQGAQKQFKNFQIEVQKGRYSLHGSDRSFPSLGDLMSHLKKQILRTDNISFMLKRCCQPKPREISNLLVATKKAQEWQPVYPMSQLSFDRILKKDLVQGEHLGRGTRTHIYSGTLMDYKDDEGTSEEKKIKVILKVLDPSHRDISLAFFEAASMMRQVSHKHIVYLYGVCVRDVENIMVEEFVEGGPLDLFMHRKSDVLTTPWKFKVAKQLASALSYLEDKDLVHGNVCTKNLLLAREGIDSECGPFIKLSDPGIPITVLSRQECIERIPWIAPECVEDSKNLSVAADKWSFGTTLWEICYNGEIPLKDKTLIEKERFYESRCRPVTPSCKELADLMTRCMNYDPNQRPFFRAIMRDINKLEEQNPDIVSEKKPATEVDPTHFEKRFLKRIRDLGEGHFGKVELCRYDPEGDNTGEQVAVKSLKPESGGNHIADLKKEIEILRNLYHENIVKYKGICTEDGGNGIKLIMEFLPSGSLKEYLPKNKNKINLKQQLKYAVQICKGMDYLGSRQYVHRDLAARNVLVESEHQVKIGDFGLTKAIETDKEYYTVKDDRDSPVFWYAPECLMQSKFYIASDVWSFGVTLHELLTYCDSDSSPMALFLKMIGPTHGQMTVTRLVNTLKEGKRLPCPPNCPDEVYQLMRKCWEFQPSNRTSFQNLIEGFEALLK

## Cc1ccnc(Nc2cccc(-c3cnc(N4CCNC(=O)C45CC5)o3)c2)n1 [Compound 001, 4-{5-[3-(4-Methyl-pyrimidin-2-ylamino)-phenyl]-oxazol-2-yl}-4,7-diaza-spiro[2.5]octan-8-one]
[1]
  IC50: 6 µM
[2]; 15 mg/kg b.i.d.
  Ankle Thickening Score: −17%
  Arthritis Score: −23%
[2]; 50 mg/kg b.i.d.
  Ankle Thickening Score: −52% P < 0.005
  Arthritis Score: −68% P < 0.005
[2]; 2×50 mg/kg/day
  reduction of ankle thickening: 52%
  reduction of arthritis score: 68%
[3]
  IC50: 10 µM
[4]
  IC50: 3.4 µM
[5]; 48 h, read-out: Drug-induced cytotoxicity IC50, Hu-CM
  IC50 at 48 h: 10 µM
[5]; primary human adult cardiomyocytes, 1 μM, read-out: % cell viable at 1 μM, Hu-CM
  viability at 48 h, 1 µM: 14%
